Test results reported in patent publication US11524966B1 (Valo Early Discovery, Inc., priority 2017, dated 2022).

target: T1, USP28 (His-tagged USP28-FL-mammalian) (Homo sapiens, UniProt Q96RU2); assay: Ubiquitin-Rhodamine 110 Assay for USP28 Activity, Example A-1(a); type: biochemical; settings: Ubiquitin-Rhodamine 110 assay, Example A-1(a); read-out: USP28 A-1(a) IC50 range
T1 construct: Expression of USP28 (1-1077)-TEV-6*His (pTT5 vector); made in house; host or cells: Expi293f cells (pTT5 vector)
T1 sequence (Q96RU2 1-1077): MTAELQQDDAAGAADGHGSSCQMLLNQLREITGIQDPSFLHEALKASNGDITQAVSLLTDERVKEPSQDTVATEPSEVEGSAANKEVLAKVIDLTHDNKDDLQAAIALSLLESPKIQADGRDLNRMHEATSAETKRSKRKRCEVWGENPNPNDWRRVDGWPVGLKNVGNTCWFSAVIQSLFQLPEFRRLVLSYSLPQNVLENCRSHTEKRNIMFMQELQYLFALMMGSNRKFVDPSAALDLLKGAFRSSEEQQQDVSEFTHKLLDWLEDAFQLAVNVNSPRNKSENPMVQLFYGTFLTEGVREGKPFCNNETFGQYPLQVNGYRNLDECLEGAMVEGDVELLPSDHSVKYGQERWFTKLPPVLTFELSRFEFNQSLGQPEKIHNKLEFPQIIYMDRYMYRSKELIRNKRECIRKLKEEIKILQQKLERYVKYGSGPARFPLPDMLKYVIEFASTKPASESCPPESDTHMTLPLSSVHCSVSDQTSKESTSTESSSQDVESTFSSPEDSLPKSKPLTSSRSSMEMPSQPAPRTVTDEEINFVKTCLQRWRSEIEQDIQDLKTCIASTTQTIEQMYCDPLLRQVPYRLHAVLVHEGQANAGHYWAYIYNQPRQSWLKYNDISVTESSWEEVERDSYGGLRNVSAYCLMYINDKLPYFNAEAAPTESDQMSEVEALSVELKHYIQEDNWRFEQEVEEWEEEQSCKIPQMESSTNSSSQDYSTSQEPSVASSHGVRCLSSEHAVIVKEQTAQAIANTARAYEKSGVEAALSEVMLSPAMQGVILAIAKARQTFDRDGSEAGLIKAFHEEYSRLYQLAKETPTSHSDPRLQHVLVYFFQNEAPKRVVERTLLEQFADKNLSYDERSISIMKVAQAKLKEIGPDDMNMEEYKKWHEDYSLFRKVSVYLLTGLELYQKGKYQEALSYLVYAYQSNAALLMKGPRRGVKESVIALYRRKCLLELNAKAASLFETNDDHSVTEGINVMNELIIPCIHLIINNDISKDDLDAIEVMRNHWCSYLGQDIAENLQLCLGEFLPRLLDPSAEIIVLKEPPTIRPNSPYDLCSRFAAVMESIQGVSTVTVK
How it was run: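 IC50 from 4-parameter logistic fit of percent inhibition versus no-enzyme and DMSO controls; compounds 25 μM to 1.3 nM, 3-fold. Ub-Rh110 cleavage (25 nM, below Km) by […] mammalian-expressed USP28-FL-His ran 45 min at room temperature, stopped with 10 mM citric acid, read ex 485/em 535.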

SMILES | IC50
Cc1ccc2c(N)c(C(=O)N[C@H]3CCc4nc(N5CCNCC5)cc(F)c4C3)sc2n1 [Example 23-17, 3-amino-N-[(6S)-4-fluoro-2-(piperazin-1-yl)-5,6,7,8-tetrahydroquinolin-6-yl]-6-methylthieno[2,3-b]pyridine-2-carboxamide] | 1 to 50 nM
Cc1cc(C(F)F)c2c(N)c(C(=O)N[C@H]3COc4cc(N5CC6CNCC(C5)O6)ccc4C3)sc2n1 [Example 88, N-((3R)-7-(9-oxa-3,7-diazabicyclo[3.3.1]nonan-3-yl)chroman-3-yl)-3-amino-4-(difluoromethyl)-6-methylthieno[2,3-b]pyridine-2-carboxamide] | 1 to 50 nM
Cc1nc2sc(C(=O)N[C@@H]3COc4cc(N5CC6CCC(C5)N6)c(F)cc4C3)c(N)c2s1 [Example 46, N-((3S)-7-(3 8-diazabicyclo[3.2.1]octan-3-yl)-6-fluorochroman-3-yl)-6-amino-2-methylthieno[2,3-d]thiazole-5-carboxamide] | 1 to 50 nM
Cc1ccc2c(N)c(C(=O)N[C@H]3COc4cc([C@H]5CCNC[C@@H]5F)ccc4C3)sc2n1 [Example 80, 3-amino-N-((R)-7-((3R,4R)-3-fluoropiperidin-4-yl)chroman-3-yl)-6-methylthieno[2,3-b]pyridine-2-carboxamide] | 1 to 50 nM
Cc1ccc2c(N)c(C(=O)N[C@H]3COc4cc(C5(C#N)CCS(=O)(=O)CC5)ccc4C3)sc2n1 [Example 34, 3-amino-N-[(3R)-7-(4-cyano-1,1-dioxo-1λ6-thian-4-yl)-3,4-dihydro-2H-1-benzopyran-3-yl]-6-methylthieno[2,3-b]pyridine-2-carboxamide] | 1 to 50 nM
Cc1ccc2c(N)c(C(=O)N[C@H]3COc4cc([C@H]5CCNC[C@@H]5O)ccc4C3)sc2n1 [Example 64, 3-amino-N-((R)-7-((3R,4R)-3-hydroxypiperidin-4-yl)chroman-3-yl)-6-methylthieno[2,3-b]pyridine-2-carboxamide] | 1 to 50 nM
Cc1ccc2c(N)c(C(=O)N[C@H]3CCc4nc(N5CC6CCC(C5)N6)ccc4C3)sc2n1 [Example 23-12, 3-amino-N-[(6S)-2-{3,8-diazabicyclo[3.2.1]octan-3-yl}-5,6,7,8-tetrahydroquinolin-6-yl]-6-methylthieno[2,3-b]pyridine-2-carboxamide] | 1 to 50 nM
C[C@H]1CCc2cc(C(=O)N[C@H]3COc4cc(N5CC6CCC(C5)N6)ccc4C3)cnc2N1 [Example 73, (7S)-N-((3R)-7-(3,8-diazabicyclo[3.2.1]octan-3-yl)chroman-3-yl)-7-methyl-5,6,7,8-tetrahydro-1,8-naphthyridine-3-carboxamide] | > 2000 nM
Cc1ccc2c(N)c(C(=O)N[C@H]3COc4cc(N5C[C@@H]6CC[C@H]5CN6)ncc4C3)sc2n1 [Example 75, N-((R)-7-((1S, 4S)-2 5-diazabicyclo[2.2.2]octan-2-yl)-3,4-dihydro-2H-pyrano[3,2-c]pyridin-3-yl)-3-amino-6-methylthieno[2,3-b]pyridine-2-carboxamide] | 1 to 50 nM
Cc1cnc2c(N)c(C(=O)N[C@H]3CCc4nc(N5CC6CCC(C5)N6)ccc4C3)sc2n1 [Example 23-13, 7-amino-N-{(6S)-2-{3,8-diazabicyclo[3.2.1]octan-3-yl}-5,6,7,8-tetrahydroquinolin-6-yl]-3-methylthieno[2,3-b]pyrazine-6-carboxamide] | 1 to 50 nM
Cc1ccc2c(N)c(C(=O)N[C@H]3COc4cc([C@@H]5CCNC[C@H]5O)ccc4C3)sc2n1 [Example 65, 3-amino-N-((R)-7-((3S,4S)-3-hydroxypiperidin-4-yl)chroman-3-yl)-6-methylthieno[2,3-b]pyridine-2-carboxamide] | 1 to 50 nM
O=C(N[C@H]1COc2cc(N3CCNCC3)ccc2C1)c1ccc(NCc2ccccc2)nc1 [Example 52, (R)-6-(benzylamino)-N-(7-(piperazin-1-yl)chroman-3-yl)nicotinamide] | 200 to 2000 nM
Cc1ccc2c(N)c(C(=O)N[C@H]3COc4cc(N5CCNCC5)c(F)c(F)c4C3)sc2n1 [Example 61, (R)-3-amino-N-(5,6-difluoro-7-(piperazin-1-yl)chroman-3-yl)-6-methylthieno[2,3-b]pyridine-2-carboxamide] | 1 to 50 nM
Cc1ccc2c(N)c(C(=O)N[C@H]3COc4cc(N5CCNCC5)cc(Cl)c4C3)sc2n1 [Example 48, (R)-3-amino-N-(5-chloro-7-(piperazin-1-yl)chroman-3-yl)-6-methylthieno[2,3-b]pyridine-2-carboxamide] | 1 to 50 nM
O=C(N[C@H]1COc2c(F)c(N3CC4CCC(C3)N4)cc(F)c2C1)c1cnc2c(c1)[C@@H]1C[C@@H]1CN2 [Example 89, (1aS, 7bR)-N-((3R)-7-(3 8-diazabicyclo[3.2.1]octan-3-yl)-5,8-difluorochroman-3-yl)-1a,2,3,7b-tetrahydro-1H-cyclopropa[c][1,8]naphthyridine-6-carboxamide] | 1 to 50 nM
Cc1cnc2c(N)c(C(=O)N[C@H]3COc4c(C#N)c(N5CC6CC(C5)N6)cc(F)c4C3)sc2n1 [Example 77, N-((3R)-7-(3,6-diazabicyclo[3.1.1]heptan-3-yl)-8-cyano-5-fluorochroman-3-yl)-7-amino-3-methylthieno[2,3-b]pyrazine-6-carboxamide] | 50 to 200 nM
Cc1ccc2c(N)c(C(=O)N[C@H]3COc4c(F)c(N5CCNCC5)cc(F)c4C3)oc2n1 [Example 68, (R)-3-amino-N-(5,8-difluoro-7-(piperazin-1-yl)chroman-3-yl)-6-methylfuro[2,3-b]pyridine-2-carboxamide] | 200 to 2000 nM
COC[C@@H]1CN(c2ccc3c(n2)CC[C@H](NC(=O)c2sc4nc(C)ccc4c2N)C3)C[C@@H]1N (single isomer, unassigned) [Example 24-1] | 50 to 200 nM
Cc1ccc2c(N)c(C(=O)N[C@@H]3COc4cc(N5C[C@H]6CNC[C@@H]6C5)ccc4C3)sc2n1 [Example 44, 3-amino-N-((S)-7-((3aR,6aR)-hexahydropyrrolo[3,4-c]pyrrol-2(1H)-yl)chroman-3-yl)-6-methylthieno[2,3-b]pyridine-2-carboxamide] | > 2000 nM
CO[C@@H]1CN(c2cc3c(cc2F)C[C@@H](NC(=O)c2sc4nc(C)ccc4c2N)CO3)C[C@H]1N [Example 93, 3-amino-N-[(3R)-7-[(3R,4R)-3-amino-4-methoxypyrrolidin-1-yl]-6-fluoro-3,4-dihydro-2H-1-benzopyran-3-yl]-6-methylthieno[2,3-b]pyridine-2-carboxamide] | 50 to 200 nM
Cc1ccc2c(N)c(C(=O)N[C@H]3COc4cc([C@H]5CCNC[C@H]5F)ccc4C3)sc2n1 [Example 82, 3-amino-N-((R)-7-((3S,4R)-3-fluoropiperidin-4-yl)chroman-3-yl)-6-methylthieno[2,3-b]pyridine-2-carboxamide] | 1 to 50 nM
Cc1ccc2c(N)c(C(=O)N[C@H]3COc4c(F)c(N5CCNCC5)cc(F)c4C3)sc2n1 [Example 55, (R)-3-amino-N-(5,8-difluoro-7-(piperazin-1-yl)chroman-3-yl)-6-methylthieno[2,3-b]pyridine-2-carboxamide] | 1 to 50 nM
O=C(N[C@@H]1COc2cc(N3CCNCC3)ccc2C1)c1cnc2c(ccn2C(F)F)c1 [Example 39, (S)-1-(difluoromethyl)-N-(7-(piperazin-1-yl)chroman-3-yl)-1H-pyrrolo[2,3-b]pyridine-5-carboxamide] | > 2000 nM
Cc1cnc2c(N)c(C(=O)N[C@H]3COc4cc(N5CC6CCC(C5)N6)c(F)cc4C3)sc2n1 (single isomer, unassigned) [Example 40] | 1 to 50 nM
Cc1cnc2c(N)c(C(=O)N[C@@H]3COc4cc(N5CC6CCC(C5)N6)c(F)cc4C3)sc2n1 (single isomer, unassigned) [Example 41] | 200 to 2000 nM
Cc1ccc2c(N)c(C(=O)N[C@H]3COc4cc(N5C[C@@H]6CCNC[C@@H]65)ccc4C3)sc2n1 (single isomer, unassigned) [Example 33-3] | 1 to 50 nM
CO[C@@H]1CN(c2cc(F)c3c(c2F)OC[C@H](NC(=O)c2sc4nc(C)ccc4c2N)C3)C[C@H]1N [Example 86] | 1 to 50 nM
Cc1ccc2c(N)c(C(=O)N[C@@H]3COc4cc(N5CCNCC5)cc(Cl)c4C3)sc2n1 [Example 49, (S)-3-amino-N-(5-chloro-7-(piperazin-1-yl)chroman-3-yl)-6-methylthieno[2,3-b]pyridine-2-carboxamide] | 200 to 2000 nM
